Measurements from PubChem BioAssay (NCI).
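GI50 is the concentration that inhibits growth by half. TGI denotes the concentration required for complete inhibition of growth.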

What was measured:
Assay in all cases: NCI-60 cell line screen, 384-well format
[1] = system: HOP-92 NSCLC
[2] = system: HCT-116 colon
[3] = system: HS 578T breast
[4] = system: KM12 colon
[5] = system: UACC-257 melanoma
[6] = system: SNB-75 CNS
[7] = system: MOLT-4 leukemia
[8] = system: A549 NSCLC
[9] = system: CCRF-CEM leukemia
[10] = system: NCI-H23 lung
[11] = system: IGROV1 ovarian
[12] = system: HOP-62 NSCLC
[13] = system: MDA-MB-468 breast
[14] = system: A498 renal
[15] = system: NCI-H226 lung
[16] = system: HCT-15 colon
[17] = system: SK-MEL-28 melanoma
[18] = system: OVCAR-4 ovarian
[19] = system: SF-295 CNS
[20] = system: HCC-2998 colon
[21] = system: PC-3 prostate
[22] = system: SF-268 CNS
[23] = system: LOX IMVI melanoma
[24] = system: HT29 colon
[25] = system: SNB-19 CNS
[26] = system: BT-549 breast
[27] = system: SK-OV-3 ovarian
[28] = system: SW-620 colon
[29] = system: TK-10 renal
[30] = system: OVCAR-8 ovarian
[31] = system: UO-31 renal
[32] = system: K-562 leukemia
[33] = system: RXF 393 renal
[34] = system: COLO 205 colon
[35] = system: NCI/ADR-RES ovarian
[36] = system: SF-539 CNS
[37] = system: OVCAR-5 ovarian
[38] = system: NCI-H322M lung
[39] = system: DU-145 prostate
[40] = system: SN12C renal
[41] = system: MDA-MB-231 breast
[42] = system: MALME-3M melanoma
[43] = system: MCF7 breast
[44] = system: ACHN renal
[45] = system: UACC-62 melanoma
[46] = system: OVCAR-3 ovarian

## COc1cc(Nc2ncc3c(n2)-c2ccc(Cl)cc2C(c2c(F)cccc2OC)=NC3)ccc1C(=O)O
[1]
  GI50: 2.18 µM
  TGI: 17.2 µM
[2]
  GI50: 0.0293 µM
  TGI: 25.2 µM
[3]
  GI50: 0.0403 µM
  TGI: 12.4 µM
[4]
  GI50: 0.0838 µM
  TGI: > 100 µM
[5]
  GI50: 13.7 µM
  TGI: 52.6 µM
[6]
  GI50: 3.1 µM
  TGI: 17 µM
[7]
  TGI: 0.0209 µM
[8]
  GI50: 0.0795 µM
  TGI: 16.8 µM
[9]
  GI50: 0.0192 µM
  TGI: 0.0773 µM
[10]
  GI50: 1.26 µM
  TGI: 14.9 µM
[11]
  GI50: 0.743 µM
  TGI: 13.5 µM
[12]
  GI50: 0.179 µM
  TGI: 31.9 µM
[13]
  GI50: 0.0199 µM
  TGI: 0.0534 µM
[14]
  GI50: 0.0833 µM
  TGI: 29.6 µM
[15]
  GI50: 1.28 µM
  TGI: 10.9 µM
[16]
  GI50: 0.0581 µM
  TGI: 37.2 µM
[17]
  GI50: 13.2 µM
  TGI: 51.7 µM
[18]
  GI50: 9.41 µM
  TGI: 50.4 µM
[19]
  GI50: 0.088 µM
  TGI: 24.6 µM
[20]
  GI50: 3.24 µM
  TGI: 47.9 µM
[21]
  GI50: 12 µM
  TGI: 45.2 µM
[22]
  GI50: 0.0113 µM
  TGI: 0.0549 µM
[23]
  GI50: 0.725 µM
  TGI: 17.8 µM
[24]
  GI50: 1.49 µM
  TGI: > 100 µM
[25]
  GI50: 9.37 µM
  TGI: 61.9 µM
[26]
  GI50: 0.0986 µM
  TGI: 20.1 µM
[27]
  GI50: 4.11 µM
  TGI: 22.6 µM
[28]
  GI50: 0.202 µM
  TGI: 28.1 µM
[29]
  GI50: 4.77 µM
  TGI: 21.7 µM
[30]
  GI50: 7.27 µM
  TGI: 36.9 µM
[31]
  GI50: 4.32 µM
  TGI: 20.7 µM
[32]
  GI50: 0.0367 µM
  TGI: 11.5 µM
[33]
  GI50: 0.0513 µM
  TGI: 7.31 µM
[34]
  GI50: 0.0376 µM
  TGI: > 100 µM
[35]
  GI50: 0.369 µM
  TGI: 31.4 µM
[36]
  GI50: 0.0651 µM
  TGI: 25.2 µM
[37]
  GI50: 4.4 µM
  TGI: 30.3 µM
[38]
  GI50: 19.3 µM
  TGI: > 100 µM
[39]
  GI50: 10.6 µM
  TGI: 26.6 µM
[40]
  GI50: 0.0522 µM
  TGI: 17 µM
[41]
  GI50: 2.72 µM
  TGI: 23.6 µM
[42]
  GI50: 17.9 µM
  TGI: 60.7 µM
[43]
  GI50: 1.7 µM
  TGI: > 100 µM
[44]
  GI50: 1.81 µM
  TGI: 19.7 µM
[45]
  GI50: 0.768 µM
  TGI: 35.4 µM
[46]
  GI50: 0.0915 µM
  TGI: 14.6 µM
